Test results: US8466290B2, “STAT3 inhibitor containing quinolinecarboxamide derivative as active ingredient” (Pharma IP General Incorporated Association, priority 2008, dated 2013)

system: STAT3; assay: STAT3 transcription inhibition test (reporter gene method, oncostatin M stimulation); type: cell-based; details: Homo sapiens; compound at 100 μM; STAT3 reporter HeLa stable cell line; oncostatin M 10 ng/mL, 4 hours; read-out: STAT3 transcription inhibitory activity (%)
Description: The inhibition of STAT3 transcription was evaluated by using STAT3 reporter HeLa stable cell line (Panomics Inc., catalog No. RC0003), a cell line for the reporter gene method, and performing the following method according to the appendix included therein.
STAT3 reporter HeLa stable cell line subcultured and maintained in a Dulbecco's modified Eagle's medium (DMEM) containing 10% fetal bovine serum, 100 units/mL penicillin, and 100 μg/mL streptomycin was inoculated at a concentration of 40000 cells/well to a 96-well plate (white) and attached to the plate by overnight incubation at 37° C. under 5% CO2. After addition of each evaluation compound adjusted to various concentrations (adjusted with a DMSO solution), the cells were precultured for 1 hour. Then, oncostatin M for activating STAT3 was added at a final concentration 10 ng/mL, and the cells were further cultured at 37° C. under 5% CO2 for 4 hours. Luciferase activity derived from the cells was determined using Steady-Glo Luciferase Assay System (Promega Corp.), and STAT3 transcriptional activity scores were calculated according to the following formula: STAT3 transcriptional activity score (%)=100×(Lchem−L0)/(LDMSO−L0) Lo: luminescence intensity obtained without stimulation with oncostatin M Lchem: luminescence intensity obtained by the addition of a test sample LDMSO: luminescence intensity obtained by the addition of only a solvent for dissolving a test sample

Compound | inhibition at 100 µM [%]
O=C(Nc1nnc(-c2ccco2)o1)c1cc(-c2cccc([N+](=O)[O-])c2)nc2ccccc12 [Ia-16, N-[5-(2-furyl)-1,3,4-oxadiazol-2-yl]-2-(3-nitrophenyl)-4-quinolinecarboxamide] | 62
O=C(Nc1nnc(-c2ccc([N+](=O)[O-])o2)o1)c1cc(-c2ccccc2)nc2ccccc12 [Ia-84, N-[5-(5-nitro-2-furyl)-1,3,4-oxadiazol-2-yl]-2-phenyl-4-quinolinecarboxamide] | 56
O=C(Nc1nnc(-c2ccc(Cl)cc2)o1)c1cc(-c2ccccc2)nc2ccccc12 [Ia-5, N-[5-(4-chlorophenyl)-1,3,4-oxadiazol-2-yl]-2-phenyl-4-quinolinecarboxamide] | > 100
O=C(Nc1nnc(-c2ccco2)o1)c1cc(N2CCCCC2)nc2ccccc12 [Ia-14, N-[5-(2-furyl)-1,3,4-oxadiazol-2-yl]-2-piperidino-4-quinolinecarboxamide] | 63
COCCOc1ccc2nc(-c3ccccc3)cc(C(=O)Nc3nnc(-c4ccco4)o3)c2c1 [Ia-89, N-[5-(2-furyl)-1,3,4-oxadiazol-2-yl]-6-(2-methoxyethoxy)-2-phenyl-4-quinolinecarboxamide] | > 100
Nc1ccccc1-c1cc(C(=O)Nc2nnc(-c3ccco3)o2)c2ccccc2n1 [Ia-40, 2-(2-aminophenyl)-N-[5-(2-furyl)-1,3,4-oxadiazol-2-yl]-4-quinolinecarboxamide] | 62
Cc1c(Cl)ccc2c(C(=O)Nc3nnc(-c4ccco4)o3)cc(-c3ccco3)nc12 [Ia-28, 7-chloro-2-(2-furyl)-N-[5-(2-furyl)-1,3,4-oxadiazol-2-yl]-8-methyl-4-quinolinecarboxamide] | > 100
O=C(Nc1nnc(-c2ccco2)o1)c1cc(-c2ccccc2Cl)nc2ccccc12 [Ia-37, 2-(2-chlorophenyl)-N-[5-(2-furyl)-1,3,4-oxadiazol-2-yl]-4-quinolinecarboxamide] | 100
O=C(Nc1nnc(-c2ccco2)o1)c1cc(-c2cccs2)nc2c(Cl)cccc12 [Ia-32, 8-chloro-N-[5-(2-furyl)-1,3,4-oxadiazol-2-yl]-2-(2-thienyl)-4-quinolinecarboxamide] | 90
O=C(Nc1nnc(-c2ccc([N+](=O)[O-])cc2)o1)c1cc(-c2ccccc2)nc2ccccc12 [Ia-7, N-[5-(4-nitrophenyl)-1,3,4-oxadiazol-2-yl]-2-phenyl-4-quinolinecarboxamide] | 65
O=C(Nc1nnc(-c2ccco2)o1)c1cc(-c2ccco2)nc2ccccc12 [Ia-18, 2-(2-furyl)-N-[5-(2-furyl)-1,3,4-oxadiazol-2-yl]-4-quinolinecarboxamide] | 68
O=C(Nc1nnc(-c2cccnc2)o1)c1cc(-c2ccccc2)nc2ccccc12 [Ia-9, 2-phenyl-N-[5-(3-pyridyl)-1,3,4-oxadiazol-2-yl]-4-quinolinecarboxamide] | 65
O=C(Nc1nnc(-c2ccco2)o1)c1cc(-c2ccc(O)cc2)nc2ccccc12 [Ia-50, N-[5-(2-furyl)-1,3,4-oxadiazol-2-yl]-2-(4-hydroxyphenyl)-4-quinolinecarboxamide] | 73
O=C(Nc1nnc(-c2ccco2)s1)c1cc(-c2ccccc2)nc2ccccc12 [Ib-4, N-[5-(2-furyl)-1,3,4-thiadiazol-2-yl]-2-phenyl-4-quinolinecarboxamide] | 58
Cc1c(Cl)ccc2c(C(=O)Nc3nnc(-c4ccco4)o3)cc(-c3ccccc3)nc12 [Ia-26, 7-chloro-N-[5-(2-furyl)-1,3,4-oxadiazol-2-yl]-8-methyl-2-phenyl-4-quinolinecarboxamide] | 73

same assay, conditions: compound at 100 μM; STAT3 reporter HeLa stable cell line; oncostatin M 10 ng/mL, 4 hours

Compound | STAT3 transcription inhibitory activity (%)
COc1ccc2cc(-c3cc(C(=O)Nc4nnc(-c5ccco5)o4)c4ccccc4n3)ccc2c1 [Ia-61, N-[5-(2-furyl)-1,3,4-oxadiazol-2-yl]-2-(6-methoxy-2-naphthyl)-quinolinecarboxamide] | >100
N-[(5-phenyl-1,3,4-oxadiazol-2-yl)methyl]-4-quinolinecarboxamide [Ia-10] | >100
